In US20100226888A1, “Ethanol Enhances the Complete Replication of Hepatitis C Virus: the Role of Acetaldehyde” (priority 2009, published 2010):
Like-named read-outs stand apart in the source and are kept apart here.

Tests used:
JFH1 HCV (genotype 2a) = format: cell-based, hepatitis C virus; conditions: for intracellular JFH1 HCV RNA levels: 48 hrs
[1] = system: SgJFH1-Luc subgenomic HCV replicon (genotype 2a); format: cell-based, hepatitis C virus
Description: (§1) The genotype 2a HCV constructs, pJFH1 (produces infectious virus particles), replicative-null pJFH1-GND, and subgenomic pSgJFH1-Luc (contains a luciferase reporter gene), are described elsewhere (23, 24). Subgenomic HCV replicons are bicistronic constructs that express only the nonstructural proteins of HCV under the control of encephalocarditis virus IRES; neomycin resistance or firefly luciferase gene is under the control of the HCV IRES (15, 22, 24). These replicons support HCV RNA replication but no virus is formed in cell culture. Huh7 cell clones (SgPC2 cells, Clone B) supporting continuous replication of subgenomic HCV replicon of genotype 1b (Con1 sequence) were also used (17, 22).
After various treatments, SgJFH1 Luc RNA-transfected cells were lysed with 1× Reporter Lysis Buffer, and the luciferase activity was determined using Luciferase Reporter Assay Kit (Promega Corp.) (24). Luciferase activities were normalized by total protein content, determined with bicinchoninic acid (BCA) assay kit from Pierce.
To test whether the JFH1 RNA replication was also affected by ethanol, Huh7 cells were transfected with JFH1 SgJFH1-Luc RNA and exposed the cells to ethanol for 48 hours. Then, HCV replication was monitored by measuring the firefly luciferase activity (24).

intracellular GSH = assay: Intracellular GSH content in Huh7 cells; format: cell-based, human
Description: Hepatic ethanol, particularly CYP2E1-mediated, metabolism is known to generate ROS (31). […] First, to examine the effects of endogenously generated ROS, L-buthionine S,R-sulfoximine (BSO) was used. BSO depletes glutathione (GSH), a major endogenous antioxidant, by inhibiting its de novo synthesis and therefore, would amplify the effects of endogenous ROS, generated during normal cellular metabolism and in response to HCV (5). BSO decreases intracellular GSH content by approximately 80±12% in Huh7 cells (P<0.05).

HCV IRES = conditions: ethanol, data not shown
Procedure: (§2) JFH1-transfected cells were exposed to ethanol for 5 hrs and then, the cytoplasmic lysates, containing the HCV replication complex, were isolated. Then, the in vitro RNA replication assay was performed in the presence of α-^32P-labeled CTP and actinomycin D, as previously described (17). JFH1 GND cell lysates were used as a negative control.

NADH/NAD+ ratio = assay: NADH/NAD+ enzymatic NADH recycling assay; format: cell-based, human
Procedure: NADH and NAD+ levels were determined by enzymatic NADH recycling assay, using the NAD+/NADH Quantification Kit from Biovision, per manufacturers recommendations with an optional filtration step that used Microcon YM-10 (Millipore). […] The data were normalized by total protein content, determined with BCA assay kit from Pierce.

CYP2E1 = conditions: daily 0.2% (v/v) ethanol for 48 hrs, JFH1 cells
Description: Cells were sonicated in Laemmli buffer, and proteins were separated on 7-20% Tris-glycine gel (Invitrogen) or 12.5% SDS-polyacrylamide gel and western blotted, using mouse monoclonal anti-NS5A (Biodesign, Inc.), goat anti-actin, and the corresponding horseradish peroxidase-conjugated secondary antibodies (Santa Cruz Laboratories) with an ECL Plus kit (Amersham Biosciences). Images were obtained and quantified, using 152000R (Kodak).

[2] = system: intracellular cholesterol; assay: Total intracellular cholesterol content in SgPC2 cells; format: cell-based, human; conditions: 24 h
Procedure: FIG. 7. […] SgPC2 cells were treated for 24 h with (A and B) 0.2% ethanol, 5 μM acetaldehyde, 0.2% isopropyl alcohol, 2 mM acetone, 5 μM acetate±30 min pretreatment with (A) 5 μM lovastatin, 5 μM fluvastatin, (B) 5 μg/ml TOFA, 5 μg/ml cerulenin, or with (C) 2 mM β-mercaptopropionic acid (β-MPA). Then, HCV RNA levels were monitored by Northern blot and quantified by densitometry (n=3). D, SgPC2 cells, treated for 24 h with ethanol, acetaldehyde, acetone, and acetate±lovastatin, were monitored for cholesterol levels (n=3). Lovastatin was activated, as described, before use (29). *, indicates statistically significant difference for indicated sample sizes (p<0.05)

[3] = system: HCV RNA replication complex (Con1 strain); conditions: cells treated with ethanol for 5 hrs
Procedure: (§3) In vitro replication assay was carried out according to the modified method of Ali et al., as previously described (16, 17, 26). Briefly, cytoplasmic lysates were prepared, and the replication was allowed to proceed for 1 hr at 30° C. in the presence of α-^32P-CTP and actinomycin D. Then, RNA products were analyzed on a 1% formaldehyde agarose gel, which was subsequently analyzed, using Optiquant Cyclone 4.00 (Perkin Elmer).
as §2

[4] = system: HCV RNA replication complex (JFH1)
Procedure: as §3, §2

[5] = system: Con1 HCV subgenomic replicon; assay: Con1 subgenomic replicon HCV RNA in Clone B cells; format: cell-based, hepatitis C virus; conditions: 24 hrs, response compared with SgPC2 cells
Description: as §1
(§4) Intracellular RNA extraction and northern blots were carried out, as described (16, 17). DNA probes were prepared from nucleotides (“nt.”) 4128-8273 or 358-2816 of JFH1, generated with ScaI and ApaL I, respectively, or nt. 3669 to 6016 of the Con1 subgenomic replicons. Images were quantified by densitometry, using Optiquant Cyclone 4.00 (Perkin Elmer), and data were normalized by glyceraldehyde 3-phosphate dehydrogenase (GAPDH) mRNA content.

JFH1 virus = assay: HCV RNA in naive Huh7 or Huh7.5 cells inoculated with JFH1 virus-containing medium; format: cell-based, hepatitis C virus
Procedure: (§5) The in vitro transcription, and transfection of HCV RNA, and Huh7 human hepatoma cell culture were performed as previously described (17). For experiments involving stable clones, cells were cultured in medium supplemented with 0.4-0.5 mg/mL G418, and G418 was removed from cell culture medium one day prior to cell treatments, which were performed as described in Results. For the in vitro infectivity assays, 2 ml of the extracellular medium from JFH1 RNA-transfected cells was used to inoculate naive Huh7 or Huh7.5 cells with 3 ml of fresh medium, as described (23, 25). Treatments were initiated 24 hours after infection and the cells were harvested after another 24 or 48 hrs.
The total intracellular RNA was obtained from cells using Trizol (Invitrogen). To obtain extracellular HCV RNA, cell culture medium samples were first treated with RNase A (100 μg/ml) for 30 min at room temperature, then RNA was extracted using Trizol LS and glycogen as a carrier. HCV RNA was quantified by qRT-PCR as described (17, 23). For JFH1, the primer sequences were 5′ […] 3′ (nt 146 to 164; forward, SEQ ID NO.: 1), and 5′ […] 3′ (nt 277 to 295; reverse, SEQ ID NO.: 2), and the sequence of the fluorogenic probe, labeled with 6-FAM and TAMRA (Biosearch Technologies, Inc.), was 5′ […] 3′ (nt 168 to 188, SEQ ID NO.: 3). The primer and probe sequences for qRT-PCR analysis of Con1 RNA's were described previously (17). Standard curves were generated using in vitro-transcribed HCV RNA's. Intracellular HCV RNA levels were normalized by 18 S rRNA or GAPDH mRNA.

[6] = system: Huh7 human hepatoma cells; conditions: data not shown
Procedure: NADH and NAD+ levels were determined by enzymatic NADH recycling assay, using the NAD+/NADH Quantification Kit from Biovision, per manufacturers recommendations with an optional filtration step that used Microcon YM-10 (Millipore). Total ATP content was measured using Somatic Cell ATP Assay Kit from Sigma-Aldrich. The data were normalized by total protein content, determined with BCA assay kit from Pierce.
To examine whether ethanol increased the complete replication of HCV, positive-sense genomic JFH1 RNA was produced by in vitro transcription, using T7 RNA polymerase, and transfected into Huh7 human hepatoma cells. Then, the transfected cells were exposed to 0-1.0% (v/v; 0-172 mM) ethanol once daily with a change of medium each day for 48 hrs. Then, the cells and the cell culture medium were harvested and analyzed for intracellular and RNase A-resistant extracellular HCV RNA's by a combination of Northern blots and qRT-PCR.

[7] = system: Con1 subgenomic HCV replicon (genotype 1b); assay: Con1 subgenomic replicon HCV RNA in SgPC2 cells (Northern blot); format: cell-based, hepatitis C virus; conditions: 0.1 to 1% ethanol, 24 hrs
Description: as §1, §5, §4

**Q.** Which “extracellular JFH1 RNA levels” value (JFH1 HCV (genotype 2a); BSO, 24 hrs) does the source give for `CCCCS(=N)(=O)CCC(N)C(=O)O` [BSO, L-buthionine S,R-sulfoximine] here?
**A.** Its value is “significantly decreased”.

**Q.** And the “intracellular JFH1 RNA levels” value (JFH1 HCV (genotype 2a); BSO, 24 hrs)?
**A.** Its value is “significantly decreased”.

**Q.** And the “subgenomic JFH1 RNA replication” value ([1]; BSO alone or with 0.25 mU/mL GO + glucose, 24 hr)?
**A.** Its value is “suppressed”.

**Q.** And the “decrease of intracellular GSH content” value (intracellular GSH)?
**A.** Its value is “approximately 80±12%”.

**Q.** Which “HCV IRES activity” value (HCV IRES) does the source give for `CCO` [ethanol] here?
**A.** Its value is “did not increase”.

**Q.** What about the “NADH/NAD+ ratio” value (NADH/NAD+ ratio; SgPC2 cells, 3 h, 0.2% ethanol, 5 μM acetaldehyde, 5 μM acetate, 0.2% isopropyl alcohol, 2 mM acetone, 25 mM tert-butanol) of the same compound?
**A.** Its value is “increases”.

**Q.** And the “increase of NADH/NAD+ ratio” value (NADH/NAD+ ratio; ethanol, within 3 hrs)?
**A.** The value was 76.2±6.1%.

**Q.** And the CYP2E1 expression (CYP2E1)?
**A.** The CYP2E1 expression was “enhanced”.

**Q.** And the “intracellular JFH1 HCV RNA levels” value (JFH1 HCV (genotype 2a); 0.2% (v/v) ethanol once daily)?
**A.** The value was 237±40 % of untreated controls.

**Q.** And the “intracellular JFH1 HCV RNA levels” value (JFH1 HCV (genotype 2a); 0.5% (v/v) ethanol once daily)?
**A.** Its value is 305±61 % of untreated controls.

**Q.** What about the “extracellular HCV RNA (virus secretion)” value (JFH1 HCV (genotype 2a); ethanol treatment 48 hrs, RNase A-resistant RNA in medium) of the same compound?
**A.** The value was “significantly elevated”.

**Q.** What about the “luciferase activity (JFH1 RNA genome replication)” value [1] of the same compound?
**A.** The value was “increased”.

**Q.** And the “total intracellular cholesterol content” value [2]?
**A.** Its value is “increased”.

**Q.** And the “in vitro replication rate of Con1 strain” value [3]?
**A.** Its value is “accelerated”.

**Q.** And the “rate of HCV RNA replication in vitro” value ([4]; cells exposed to ethanol for 5 hrs)?
**A.** Its value is “significantly increased”.

**Q.** And the “rate of HCV RNA replication in vitro” value ([4]; cells exposed to ethanol for ½, 1, or 3 hrs, data not shown)?
**A.** The value was “no significant increase”.

**Q.** What about the “HCV RNA in Clone B cells” value [5] of the same compound?
**A.** The value was “responded similarly”.

**Q.** What about the “HCV replication in RIG-1-defective Huh7.5 cells” value (JFH1 virus; FIG. 5, also data not shown) of the same compound?
**A.** The value was “increase”.

**Q.** And the “HCV RNA in Huh7 cells infected with cell culture-generated JFH1 virion” value (JFH1 virus; ethanol treatment 48 hrs)?
**A.** Its value is “increased”.

**Q.** And the “overall ATP levels” value [6]?
**A.** Its value is “not significantly perturbed”.

**Q.** And the cytotoxicity ([6]; ethanol concentrations used, cell morphology and cellular ATP content)?
**A.** Its cytotoxicity is “did not induce any cytotoxicity”.

**Q.** And the “genotype 1b HCV RNA” value [7]?
**A.** Its value is “significant increases”.
